Earlier results in patent publication US20230059869A1, “ORAL PHARMACEUTICAL SOLUTION OF CLOPIDOGREL” (LIQMEDS WORLDWIDE LIMITED, priority 2021, published 2023).

Columns and labels:
[1] = at high doses; see Reist; Badorc
[2] = see Reist; Badorc

Question: With `COC(=O)[C@@H](c1ccccc1Cl)N1CCc2sccc2C1` [Impurity C, (R)-Methyl (2-chlorophenyl)(6,7-dihydro-4H-thieno[3,2-c]pyridin-5-yl)acetate] as the molecule, how does the convulsions [1] read?
Answer: can evoke convulsions at high doses

Question: What about the antithrombotic activity [2] of the same molecule?
Answer: devoid of antithrombotic activity
